Data reported in patent US20070275063A1, “SUSTAINED RELEASE PHARMACEUTICAL COMPOSITIONS AND METHODS OF TREATMENT USING THE SAME” (SmithKline Beecham Corporation, priority 1998, published 2007).
Converted amounts (≈) assume the structure as drawn.

Tests used:
[1] = human, in vivo
Method: Dose regimens evaluated were: 4 mg once daily and 2 mg twice daily, and 8 mg once daily and 4 mg twice daily.

[2] = system: fasting plasma glucose (FPG) concentrations in diabetic patients; assay: PK/PD model (modified indirect response model IV) of the effect of Compound (I) on fasting plasma glucose in Type 2 diabetes patients; assay type: in vivo, human
Text: The method by which the Threshold Plasma Concentration, such as the SC50 concentration, for a given compound can be determined is:
2) the model predicted concentrations for the compound are then fed back into the model and used to determine the change in fasting plasma glucose levels after various doses;
3) the relationship between predicted plasma concentrations of compound and fasting plasma glucose can suitably be determined using an indirect pharmacological response model (model IV), for example that described in (Dayneka N L, Garg V and Jusko W J, Comparison of Four Basic Models of Indirect Pharmacodynamic Responses. J of Pharmacokinetics and Biopharmaceutics. Vol 21, No 4. 1993). This model yields estimates of glucose input rate (Kin) and output rate (Kout), maximal stimulation of glucose output (Smax). Hill coefficient (gamma) and the Threshold Plasma Concentration, such as the SC50 concentration (i.e the concentration associated with a half maximal response) to be determined for that compound. This method forms a further part of the present invention.
For Compound (I), it was necessary to account for a time delay between the time of actual initiation of dosing (week 0) and the observed change in fasting plasma glucose. This delay factor was estimated through the modelling for each dose level. […] The delay factor was incorporated into the model for deriving fasting plasma glucose by assuming that the first dose of drug occurred only after the time dictated by the delay factor. It is considered that for this model a delay factor would be required for other thiazolidinedione insulin sensitisers and that this factor will be substantially similar to that found for Compound (I). Delay factors for other compounds may also be required to be determined using similar methodology to that disclosed herein.
A modified indirect response model IV (Dayneka et al. 1993) was developed utilizing the pharmacokinetics of Compound (I) as the driving force for the change in fasting plasma glucose after various doses of Compound (I). Modeling fittings were done using ADAPT II, Release 4 (D'Argenio and Schumitzky, 1979).
In the absence of Compound (I), plasma glucose levels are governed by formation (kin) and utilization (kout). The action of Compound (I) was described as stimulation (S(t)) of the utilization of plasma glucose (kout), described in text as FPG reduction (Eq. 1). Smax represents the maximal stimulation, SC50 is the Compound (I) concentration associated with half-maximal stimulation and γ represents a sigmoidicity parameter in the Hill type function (Eq. 2). [formula]
The mean fasting plasma glucose profiles from 6 weeks prior to dosing (time 0) through 26 weeks of treatment for the 5 treatment groups are shown in FIG. 2. The PK/PD model accommodates the full nature of the fasting plasma glucose response over the duration of the study period as evidenced by the close agreement between observed and predicted fasting plasma glucose concentrations (FIG. 2). […] The lag-time allows the model to describe the slow onset of action of Compound (I) observed over the first 4 weeks of dosing.

mean post hoc oral clearance [1]: 2.68 L/h
EC50 ([2]; Homo sapiens, iv, estimated pharmacodynamic parameter, not in table, read-out: SC50 (plasma concentration associated with half-maximal effect on fasting plasma glucose)): 0.0514 µg/mL (≈ 0.144 µM)
SMILES: CN(CCOc1ccc(CC2SC(=O)NC2=O)cc1)c1ccccn1 (stereo not shown) [Compound (I), 5-[4-[2-(N-methyl-N-(2-pyridyl)amino)ethoxy]benzyl]thiazolidine-2,4-dione]
Smax (maximal stimulation of glucose utilization) ([2]; estimated pharmacodynamic parameter): 0.44
lag-time (delay) between first dose and onset of FPG response ([2]; mean across dose levels, estimated through the modelling): 292 h
maximum FPG reduction suggested by Smax of the model ([2]; model-derived): 160 mg/dL
reduction in glycaemia ([2]; once daily dosing, study 024): clinically meaningful reductions in glycaemia are evident
efficacy of twice daily versus once daily dosing ([2]; study 024, same total daily dose): twice daily dosing tended to be more efficacious than once daily
